Results reported in patent US20240000767A1, “COMBINATION OF AN ALPHA2-ADRENOCEPTOR SUBTYPE C (ALPHA-2C) ANTAGONIST WITH A TASK1/3 CHANNEL BLOCKER FOR THE TREATMENT OF SLEEP APNEA” (Bayer Aktiengesellschaft, priority 2020, published 2024).
pIC50: −log10 of the molar value. Blank lines part the entries; values can stand above or below the compound they belong to.

Legend:
[1] = test system: anaesthetized, spontaneously breathing pigs; assay: Pig model of obstructive sleep apnea (OSA): upper airway collapsibility under negative pressure; type: in vivo, German Landrace pigs; conditions: 0.3 μg intranasal at 0 min
Description: B-3 Animal Model of Obstructive Sleep Apnoea in the Pig
Using negative pressure, it is possible to induce collapse and thus obstruction of the upper respiratory tract in anesthetized, spontaneously breathing pigs [Wirth et al., Sleep 36, 699-708 (2013)].
German Landrace pigs are used for the model. The pigs are anesthetized and tracheotomized. One cannula each is inserted into the rostral and the caudal part of the trachea. Using a T connector, the rostral cannula is connected on the one hand to a device generating negative pressures and on the other hand to the caudal cannula. Using a T connector, the caudal cannula is connected to the rostral cannula and to a tube which allows spontaneous breathing circumventing the upper respiratory tract. By appropriate closing and opening of the tubes it is thus possible for the pig to change from normal nasal breathing to breathing via the caudal cannula during the time when the upper respiratory tract is isolated and connected to the device for generating negative pressures. The muscle activity of the musculus genioglossus is recorded by electromyogram (EMG).
(§1) At certain points in time, the collapsibility of the upper respiratory tract is tested by having the pig breathe via the caudal cannula and applying negative pressures of −50, −100 and −150 cm water head (cmH2O) to the upper respiratory tract. This causes the upper respiratory tract to collapse, which manifests itself in an interruption of the airflow and a pressure drop in the tube system. This test is conducted prior to the administration of the test substance and at certain intervals after the administration of the test substance. An appropriately effective test substance can prevent this collapse of the respiratory tract in the inspiratory phase.
Administration of the test substance can be intranasal, intravenous, subcutaneous, intraperitoneal, intraduodenal or intragastral.
The therapeutic potential of the combination of an α2-Adrenoceptor subtype C (alpha-2C) antagonists with a TASK⅓ channel blocker according to the present invention in sleep apnea can be assessed preclinically in a pig model of obstructive sleep apnea (OSA).
Using negative pressure, it is possible to induce collapse and thus obstruction of the upper respiratory tract in anaesthetized, spontaneously breathing pigs (Wirth K. J. et al., Sleep 36(5) (2013) pp. 699-708).
German Landrace pigs are used for the model. The pigs are anaesthetized and tracheotomized. Two tracheal cannulas are inserted into the trachea, one into the rostral part and the other into the caudal part of the trachea. Using a connection piece, the rostral cannula is connected to a tube to the negative pressure device and to the distal tracheal cannula. The distal tracheal cannula is additionally connected to a tube with an open end to atmosphere via a connection piece that served for free tracheal breathing, circumventing the upper airway. By appropriate opening and clamping of those tubes breathing can be switched from nasal breathing to breathing through the caudal tracheal cannula, circumventing the upper airway, and the (isolated) upper airway can be connected to the negative pressure device, causing airflow in the inspiratory direction.
as §1, with “(cm H2O)” for “(cmH2O)”

human ADRA2C receptor = human ADRA2C receptor (Homo sapiens (Human), UniProt P18825); assay: In vitro activity assay to determine the inhibition of recombinant ADRA2C (CHO-K1 cells, aequorin bioluminescence); type: cell-based; conditions: inhibition of noradrenaline-induced bioluminescence signal; some mean values from multiple determinations; read-out: ARα2C IC50
Procedure, shortened: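 IC50 is the concentration halving the agonist (noradrenaline)-evoked rise in aequorin luminescence, fitted by 4-parameter Hill function. Read in stable Gαq/aequorin CHO-K1 cells expressing recombinant human ADRA2C.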

Chain of human ADRA2C receptor (P18825 whole entry): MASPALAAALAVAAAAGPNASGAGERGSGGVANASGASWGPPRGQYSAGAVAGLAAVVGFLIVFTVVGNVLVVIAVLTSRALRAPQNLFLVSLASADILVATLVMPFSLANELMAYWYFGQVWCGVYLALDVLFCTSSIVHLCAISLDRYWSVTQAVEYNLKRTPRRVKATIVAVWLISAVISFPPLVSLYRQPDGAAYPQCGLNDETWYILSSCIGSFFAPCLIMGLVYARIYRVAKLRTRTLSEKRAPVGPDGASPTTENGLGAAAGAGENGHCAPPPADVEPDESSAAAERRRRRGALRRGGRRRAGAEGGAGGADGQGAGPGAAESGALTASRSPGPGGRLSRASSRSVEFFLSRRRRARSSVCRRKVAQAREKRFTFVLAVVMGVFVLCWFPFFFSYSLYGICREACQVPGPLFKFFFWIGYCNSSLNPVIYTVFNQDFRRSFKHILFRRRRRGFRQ

Compound: COc1ccc(Cl)c(C(=O)N2C3CCC2CN(Cc2c(-c4ccc(C(C)C)cc4)nc4ncccn24)C3)n1 [(3-chloro-6-methoxypyridin-2-yl)(3-{[2-(4-isopropylphenyl)imidazo[1,2-a]pyrimidin-3-yl]methyl}-3,8-diazabicyclo[3.2.1]oct-8-yl)methanone]
- Percent pigs without collaps −50 cm H2O ([1]; time 0 min): 0%
- Percent pigs without collaps −100 cm H2O ([1]; time 0 min): 0%
- Percent pigs without collaps −150 cm H2O ([1]; time 0 min): 0%
- Percent pigs without collaps −50 cm H2O ([1]; time 10 min): 33%
- Percent pigs without collaps −100 cm H2O ([1]; time 10 min): 33%
- Percent pigs without collaps −150 cm H2O ([1]; time 10 min): 0%
- Percent pigs without collaps −50 cm H2O ([1]; time 30 min): 0%
- Percent pigs without collaps −100 cm H2O ([1]; time 30 min): 0%
- Percent pigs without collaps −150 cm H2O ([1]; time 30 min): 0%
- Percent pigs without collaps −50 cm H2O ([1]; time 60 min): 0%
- Percent pigs without collaps −100 cm H2O ([1]; time 60 min): 0%
- Percent pigs without collaps −150 cm H2O ([1]; time 60 min): 0%
- Percent pigs without collaps −50 cm H2O ([1]; time 90 min): 0%
- Percent pigs without collaps −100 cm H2O ([1]; time 90 min): 0%
- Percent pigs without collaps −150 cm H2O ([1]; time 90 min): 0%

Compound: COc1cccc(C(=O)N2CCN(Cc3c(-c4ccc(Cl)cc4)nc4ccccn34)CC2)n1 [(4-{[2-(4-chlorophenyl)imidazo[1,2-a]pyridin-3-yl]methyl}piperazin-1-yl)(6-methoxypyridin-2-yl)methanone]
- Percent pigs without collaps −50 cm H2O ([1]; time 0 min): 0%
- Percent pigs without collaps −100 cm H2O ([1]; time 0 min): 0%
- Percent pigs without collaps −150 cm H2O ([1]; time 0 min): 0%
- Percent pigs without collaps −50 cm H2O ([1]; time 10 min): 0%
- Percent pigs without collaps −100 cm H2O ([1]; time 10 min): 0%
- Percent pigs without collaps −150 cm H2O ([1]; time 10 min): 0%
- Percent pigs without collaps −50 cm H2O ([1]; time 30 min): 0%
- Percent pigs without collaps −100 cm H2O ([1]; time 30 min): 0%
- Percent pigs without collaps −150 cm H2O ([1]; time 30 min): 0%
- Percent pigs without collaps −50 cm H2O ([1]; time 60 min): 0%
- Percent pigs without collaps −100 cm H2O ([1]; time 60 min): 0%
- Percent pigs without collaps −150 cm H2O ([1]; time 60 min): 0%

Compound: C[C@@H]1CCCN(C2CCN(c3ncc(C(=O)NCc4ccncc4F)s3)CC2)C1 [Example 76, N-[(3-Fluoropyridin-4-yl)methyl]-2-[(3R)-3-methyl[1,4′-bipiperidin]-1′-yl]-1,3-thiazole-5-carboxamide]
- pIC50 (human ADRA2C receptor): 6.40

Compound: Cc1cccc(CNC(=O)c2cnc(N3CCC(N4CCC[C@@H](C)C4)CC3)s2)c1 [Example 36, N-(3-methylbenzyl)-2-[(3R)-3-methyl[1,4′-bipiperidin]-1′-yl]-1,3-thiazole-5-carboxamide]
- pIC50 (human ADRA2C receptor): 6.72

Compound: COc1ccc(F)cc1NC(=O)c1cnc(N2CCC(N3CCC[C@@H](C)C3)CC2)s1 [Example 97]
- pIC50 (human ADRA2C receptor): 5.89

Compound: Cc1oc(N2CCC(N3CCC[C@@H](C)C3)CC2)nc1C(=O)NCc1ncc(F)cc1F [Example 14, N-[(3,5-difluoropyridin-2-yl)methyl]-5-methyl-2-[(3R)-3-methyl[1,4′-bipiperidin]-1′-yl]-1,3-oxazole-4-carboxamide]
- pIC50 (human ADRA2C receptor): 6.68

Compound: Cc1cc(C)c(CNC(=O)c2cnc(N3CCC(N4CCC[C@@H](C)C4)CC3)s2)cn1 [Example 78, N-[(4,6-Dimethylpyridin-3-yl)methyl]-2-[(3R)-3-methyl[1,4′-bipiperidin]-1′-yl]-1,3-thiazole-5-carboxamide]
- pIC50 (human ADRA2C receptor): 6.12

Compound: O=C(NCc1ncc(F)cc1F)c1cnc(N2CCC(N3CCCC(C(F)(F)F)C3)CC2)s1 (racemic) [Example 5, N-[(3,5-difluoropyridin-2-yl)methyl]-2-[3-(trifluoromethyl)[1,4′-bipiperidin]-1′-yl]-1,3-thiazole-5-carboxamide (racemate)]
- pIC50 (human ADRA2C receptor): 6.47

Compound: O=C(NCc1ncc(F)cc1F)c1cnc(N2CCC(N3CCCC(COCC(F)(F)F)C3)CC2)s1 (single isomer, unassigned) [Example 106, ent-N-[(3,5-Difluoropyridin-2-yl)methyl]-2-{3-[(2,2,2-trifluoroethoxy)methyl][1,4′-bipiperidin]-1′-yl}-1,3-thiazole-5-carboxamide]
- pIC50 (human ADRA2C receptor): 9.30

Compound: Cc1sc(N2CCC(N3CCC[C@@H](C)C3)CC2)nc1C(=O)NCc1ncc(F)cc1F [Example 9, N-[(3,5-difluoropyridin-2-yl)methyl]-5-methyl-2-[(3R)-3-methyl[1,4′-bipiperidin]-1′-yl]-1,3-thiazole-4-carboxamide]
- pIC50 (human ADRA2C receptor): 6.77

Compound: O=C(NCc1ncc(F)cc1F)c1cnc(N2CCC(N3CCCC(COCC4(C(F)F)CC4)C3)CC2)s1 (racemic) [Example 61, rac-2-[3-({[1-(Difluoromethyl)cyclopropyl]methoxy}methyl)[1,4′-bipiperidin]-1′-yl]-N-[(3,5-difluoropyridin-2-yl)methyl]-1,3-thiazole-5-carboxamide]
- pIC50 (human ADRA2C receptor): 7.06

Compound: C[C@@H]1CCCN(C2CCN(c3ncc(C(=O)N(C)Cc4ncccc4F)s3)CC2)C1 [Example 27, N-[(3-fluoropyridin-2-yl)methyl]-N-methyl-2-[(3R)-3-methyl[1,4′-bipiperidin]-1′-yl]-1,3-thiazole-5-carboxamide]
- pIC50 (human ADRA2C receptor): 6.51

Compound: C[C@@H]1CCCN(C2CCN(c3ncc(C(=O)Nc4cc(Cl)ccc4O)s3)CC2)C1 [Example 96]
- pIC50 (human ADRA2C receptor): 6.00

The next lines start with the values.

- pIC50 (human ADRA2C receptor): 9.21
Compound: C[C@@H]1CCCN(C2CCN(c3ncc(C(=O)NCc4cc(Cl)ccc4F)s3)CC2F)C1 (mixture of isomers) [Example 113, diamix-N-(5-Chloro-2-fluorobenzyl)-2-[(3R)-3′-fluoro-3-methyl[1,4′-bipiperidin]-1′-yl]-1,3-thiazole-5-carboxamide]

- pIC50 (human ADRA2C receptor): 6.49
Compound: O=C(NCc1ncc(F)cc1F)c1cnc(N2CCC(N3CCCC4(COC4)C3)CC2)s1 [Example 136]

- pIC50 (human ADRA2C receptor): 8.17
Compound: O=C(NCc1ncc(F)cc1F)c1cnc(N2CCC(N3CCc4c(Cl)cccc4C3)CC2)s1 [Example 142]

- pIC50 (human ADRA2C receptor): 6.59
Compound: CCOC1CCCN(C2CCN(c3ncc(C(=O)NCc4ncc(F)cc4F)s3)CC2)C1 (single isomer, unassigned) [Example 123, ent-N-[(3,5-Difluoropyridin-2-yl)methyl]-2-(3-ethoxy[1,4′-bipiperidin]-1′-yl)-1,3-thiazole-5-carboxamide]

- pIC50 (human ADRA2C receptor): 8.82
Compound: O=C(NCc1ncc(F)cc1F)c1cnc(N2CCC(N3CCCC(OC4CC(F)(F)C4)C3)CC2)s1 (racemic) [Example 110, rac-2-{3-[(3,3-Difluorocyclobutyl)oxy][1,4′-bipiperidin]-1′-yl}-N-[(3,5-difluoropyridin-2-yl)methyl]-1,3-thiazole-5-carboxamide]
